From patent US9095535B2, “GABA release-regulating agent in cerebellum” (KOREA INSTITUTE OF SCIENCE AND TECHNOLOGY, priority 2009, dated 2015)

Assays:
cerebellar granule cells = experiment: Clomeleon imaging of [Cl−]i in cerebellar granule cells (tonic GABA release); type: cell-based, mouse; conditions: bath application of 10 μM
Method: B6 wildtype, GFAP-GFP and hGFAP-CreERT2 trangenic mice (SPF room, Center for Neural Science, KIST, Seoul, Korea) were anaesthetized by intraperitoneal injection of 2% avertin (20 μl/g, sigma) and placed in a stereotaxic frame (David Kopf instrument). pSicoR-b1shRNA-mCherry or scrambled virus (Macrogen) was stereo-injected into cerebellar cortex at a rate of 0.2 μl/min (total 2 μl) using syringe pump (Harvard apparatus) and 25 μl syringe (Hamilton company). The coordination of injection site was 1.7 mm from the lambda and the depth was 1.5-1.7 mm from the skull. […]
Clomeleon, based on fluorescence resonance energy transfer (FRET), is a genetically-encoded fluorescent indicator for Cl^− in which chloride-sensitive yellow fluroscent protein fused with chloride-insensitive cyan fluorescent protein via a flexible peptide linker (Kuner and Augustine, 2000). […]
For imaging, two ROIs (Regions of Interest) covering the granule cell layer and the molecular layer were drawn. […] Fluorescence excitation was produced by two consecutive 200 to 500 ms long light pulses at 0.5 Hz and fluorescence emission was alternately collected at each wavelength with a back-illuminated, cooled CCD camera with the on-chip multiplication gain control (Cascade 512B, Photometrics). […]

hBest1 = target: T1, hBest1 (Homo sapiens, UniProt O76090); conditions: cited from earlier work
T1 sequence (O76090 1-585): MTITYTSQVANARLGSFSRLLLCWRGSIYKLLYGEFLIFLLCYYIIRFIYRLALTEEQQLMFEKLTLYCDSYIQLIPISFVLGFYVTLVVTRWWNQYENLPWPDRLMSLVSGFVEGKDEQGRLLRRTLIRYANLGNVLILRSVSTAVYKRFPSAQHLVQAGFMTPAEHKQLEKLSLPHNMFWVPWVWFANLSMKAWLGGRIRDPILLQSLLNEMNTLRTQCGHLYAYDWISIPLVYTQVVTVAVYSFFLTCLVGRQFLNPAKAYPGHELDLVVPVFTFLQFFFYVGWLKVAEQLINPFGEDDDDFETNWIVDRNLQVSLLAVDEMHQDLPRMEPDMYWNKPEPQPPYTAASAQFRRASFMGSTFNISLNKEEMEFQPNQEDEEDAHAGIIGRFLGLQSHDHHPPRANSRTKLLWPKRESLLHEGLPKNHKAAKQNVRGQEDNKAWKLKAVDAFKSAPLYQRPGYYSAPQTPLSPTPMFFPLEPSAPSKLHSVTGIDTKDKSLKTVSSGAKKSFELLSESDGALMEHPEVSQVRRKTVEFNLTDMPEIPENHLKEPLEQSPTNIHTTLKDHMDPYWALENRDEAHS

Best1 channel = target: T2, Best1 channel (Mus musculus, UniProt O88870); type: cell-based; conditions: NPPB and NFA at 100 μM; inward current in GABAc sensor cell
T2 construct: mBest1 full-length fragment from pGEM-T easy plasmid (6.65 kb, Promega) was subcloned into pcDNA 3.1; expressed in transfected cells; host or cells: HEK293T (ATCC)
T2 sequence (O88870 1-551 R255K): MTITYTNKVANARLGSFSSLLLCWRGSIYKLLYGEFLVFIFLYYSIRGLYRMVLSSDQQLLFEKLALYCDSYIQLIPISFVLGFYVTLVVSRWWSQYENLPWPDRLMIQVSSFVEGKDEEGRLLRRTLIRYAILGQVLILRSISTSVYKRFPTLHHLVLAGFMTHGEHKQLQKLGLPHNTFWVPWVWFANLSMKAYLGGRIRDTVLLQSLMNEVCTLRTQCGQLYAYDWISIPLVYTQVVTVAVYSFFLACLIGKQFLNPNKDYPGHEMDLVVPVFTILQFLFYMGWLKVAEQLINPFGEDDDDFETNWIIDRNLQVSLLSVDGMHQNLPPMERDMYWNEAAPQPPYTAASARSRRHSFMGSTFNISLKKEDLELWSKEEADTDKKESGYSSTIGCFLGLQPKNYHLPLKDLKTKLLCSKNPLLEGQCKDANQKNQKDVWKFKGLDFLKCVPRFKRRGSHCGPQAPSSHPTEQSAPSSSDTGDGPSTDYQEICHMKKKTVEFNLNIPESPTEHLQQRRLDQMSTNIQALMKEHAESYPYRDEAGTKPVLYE
Text: For Best1 channel to mediate release of GABA, it has to permeate GABA upon channel opening. To test for GABA permeability of Best1 channel, a two-cell sniffer patch technique was developed to directly measure GABA release via Best1 channel in sensor HEK293T cells that express GABAc, and via other channels that are expressed in source HEK293T cells (FIG. 1b).
pIRES-Best1-dsRED plasmid (obtained by cloning Best1 using pIRES-dsRED (Invitrogen)) and GABAc with GFP (obtained by cloning GABAc using pcDNA3.1 (Invitrogen)) were transfected into HEK 293T cells (ATCC) using Effectene transfection reagent (Qiagen). […]
GABA release was induced by a break-though of membrane patch that goes into a whole-cell configuration in the source cell and such the released GABA was monitored and detected by a neighboring sensor cell. Full activation of GABA current was obtained by bath application of 100 μM GABA and the percentage of full activation was calculated (FIGS. 1c and 1d).
Permeated GABA is detected in sensor as an inward current (bottom traces). […] The GABA permeability of said mutant was determined by using cells obtained by transfecting said mutant into HEK293t cell (ATCC). […] The GABA permeability of said AN01 was determined by using cells obtained by transfecting said mutant into HEK293t cell (ACTT).

GABAA receptor = experiment: GABA-induced whole cell current in cerebellar granule cells; type: cell-based; conditions: NPPB application 2 and 5 min; wild B6 mouse granule cells
Method: For puffing experiment, glass electrode (5-6 MΩ) filled with […] was positioned near to the patched granular cell and puffed briefly for 500 ms by Picospritzer III (Parker instrumentation) connected with MiniDigi (Molecular Device).
The magnitudes of GABA induced current with the NPPB application (2 and 5 min) are also shown.

GABAc receptors = experiment: Patch clamp of GABAc expressing HEK293 cells challenged with 100 μM GABA; type: cell-based; conditions: 100 μM GABA in absence or presence of 100 μM NFA and 100 μM NPPB
Method: FIGS. 7a and 7b show the results when GABAc expressing HEK293 cells were patch clamped and challenged with 100 μM GABA in the absence and presence of 100 μM NFA and 100 μM NPPB; and
In FIGS. 7a and 7b, GABAc expressing HEK293 cells were patch clamped and challenged with 100 μM GABA in the absence or presence of 100 μM NFA and 100 μM NPPB.

GABA release via Best1 (Best1 channel): completely abolished
Structure (SMILES): O=C(O)c1cc([N+](=O)[O-])ccc1NCCCc1ccccc1 [NPPB, 5-nitro-2(3-phenylpropylamino)-benzoic acid]
[Cl−]i in granular cell bodies and parallel fibers (cerebellar granule cells): decreased | block of hBest1 Cl− channel (hBest1): readily blocked | GABA-induced whole cell current (GABAA receptor): did not have any effect | GABA response of GABAc expressing HEK293 cells (GABAc receptors): do not have significant impact
